Assay results: patent publication US20230047788A1, “COMPOSITIONS COMPRISING 5-CHOLESTEN-3, 25-DIOL, 3-SULFATE (25HC3S) OR PHARMACEUTICALLY ACCEPTABLE SALT THEREOF AND AT LEAST ONE CYCLIC OLIGOSACCHARIDE” (Virginia Commonwealth University, priority 2016, published 2023)

Assay: Effect of phosphate and borate buffers on chemical stability (% remaining, impurity profile), osmolality, pH and appearance of 25HC3S 30 mg/mL in 250 mg/mL HPBCD at 80°C and 60°C
Assay type: physicochemical
Settings: 80° C.
Protocol: A total of six 25HC3S formulations at 30 mg/mL in 250 mg/mL of 2-hydroxypropyl beta cyclodextrin (HPBCD) containing 10, 20, 50 and 100 mM phosphate buffers at pH 7.5 to 8.1 and 10 and 50 mM borate buffers at pH 9.4 were prepared for the stability study. The chemical stability (measured as % remaining of 25HC3S) and physical stability (osmolality, pH and appearance) of the formulations were monitored under accelerated conditions for up to 7 days at 80° C. and up to 29 days at 60° C.
Two stock solutions of phosphate buffer at 100 and 200 mM at pH 7.4 and 7.3, respectively and one borate buffer at 100 mM at pH 9.3 were prepared (Tables 22A and 22B) and used for 250 mg/mL HPBCD vehicles preparation (Table 23).
Approximately 1200 mg each of 25HC3S was weighed into 40 mL volumetric flasks and diluted to volume with the six HPBCD vehicles containing 10-100 mM phosphate buffers or 10 and 50 mM borate buffers, respectively (Table 24). The final concentration of 25HC3S was 30 mg/mL (wt/volume, without adjusting for API purity). Aliquots of 2 mL of each formulation were filled into 2 mL glass vials, stoppered and sealed for stability sample set-up at 60° C. and 80° C. to study the effect of phosphate buffer (pH 7.5-8.1) and borate buffer (pH 9.4) at various buffer concentrations on the stability of the HPBCD formulations (Table 26).
A 0.5 mL of sample solution was transferred to a 25 mL volumetric flask and QS'ed with methanol/water=95/5 for 25HC3S concentration determination by HPLC. The % remaining of 25HC3S was calculated as follows: […]

SMILES: C[C@H](CCCC(C)(C)O)[C@H]1CC[C@H]2[C@@H]3CC=C4C[C@@H](OS(=O)(=O)[O-])CC[C@]4(C)[C@H]3CC[C@]12C.[Na+] [25HC3S, 5-cholesten-3, 25-diol, 3-sulfate]
- % Peak Area Major Thermal Degradant at RRT = 2.64 (day 0, Phosphate 10 mM): 0.3 % Peak Area
- % Peak Area 25-Hydroxy Cholesterol at RRT = 3.67 (day 0, Phosphate 20 mM): 0.0 % Peak Area
- % Peak Area 25HC3S (day 0, Phosphate 20 mM): 99.7 % Peak Area
- % Peak Area Major Thermal Degradant at RRT = 2.64 (day 0, Phosphate 20 mM): 0.3 % Peak Area
- % Peak Area 25-Hydroxy Cholesterol at RRT = 3.67 (day 0, Phosphate 50 mM): 0.0 % Peak Area
- % Peak Area 25HC3S (day 0, Phosphate 50 mM): 99.7 % Peak Area
- % Peak Area Major Thermal Degradant at RRT = 2.64 (day 0, Phosphate 50 mM): 0.3 % Peak Area
- % Peak Area 25-Hydroxy Cholesterol at RRT = 3.67 (day 0, Phosphate 100 mM): 0.0 % Peak Area
- % Peak Area 25HC3S (day 0, Phosphate 100 mM): 99.8 % Peak Area
- % Peak Area Major Thermal Degradant at RRT = 2.64 (day 0, Phosphate 100 mM): 0.3 % Peak Area
- % Peak Area 25-Hydroxy Cholesterol at RRT = 3.67 (day 1, Borate 10 mM): 1.0 % Peak Area
- % Peak Area 25HC3S (day 1, Borate 10 mM): 98.8 % Peak Area
- % Peak Area Major Thermal Degradant at RRT = 2.64 (day 1, Borate 10 mM): 0.3 % Peak Area
- % Peak Area 25-Hydroxy Cholesterol at RRT = 3.67 (day 1, Borate 50 mM): 1.0 % Peak Area
- % Peak Area 25HC3S (day 1, Borate 50 mM): 98.7 % Peak Area
- % Peak Area Major Thermal Degradant at RRT = 2.64 (day 1, Borate 50 mM): 0.3 % Peak Area
- % Peak Area 25-Hydroxy Cholesterol at RRT = 3.67 (day 1, Phosphate 10 mM): 0.9 % Peak Area
- % Peak Area 25HC3S (day 1, Phosphate 10 mM): 98.9 % Peak Area
- % Peak Area Major Thermal Degradant at RRT = 2.64 (day 1, Phosphate 10 mM): 0.3 % Peak Area
- % Peak Area 25-Hydroxy Cholesterol at RRT = 3.67 (day 1, Phosphate 20 mM): 1.0 % Peak Area
- % Peak Area 25HC3S (day 1, Phosphate 20 mM): 98.8 % Peak Area
- % Peak Area Major Thermal Degradant at RRT = 2.64 (day 1, Phosphate 20 mM): 0.3 % Peak Area
- % Peak Area 25-Hydroxy Cholesterol at RRT = 3.67 (day 1, Phosphate 50 mM): 1.0 % Peak Area
- % Peak Area 25HC3S (day 1, Phosphate 50 mM): 98.9 % Peak Area
- % Peak Area Major Thermal Degradant at RRT = 2.64 (day 1, Phosphate 50 mM): 0.2 % Peak Area
- % Peak Area 25-Hydroxy Cholesterol at RRT = 3.67 (day 1, Phosphate 100 mM): 0.9 % Peak Area
- % Peak Area 25HC3S (day 1, Phosphate 100 mM): 98.8 % Peak Area
- % Peak Area Major Thermal Degradant at RRT = 2.64 (day 1, Phosphate 100 mM): 0.3 % Peak Area
- % Peak Area 25-Hydroxy Cholesterol at RRT = 3.67 (day 2, Borate 10 mM): 1.9 % Peak Area
- % Peak Area 25HC3S (day 2, Borate 10 mM): 97.9 % Peak Area
- % Peak Area Major Thermal Degradant at RRT = 2.64 (day 2, Borate 10 mM): 0.3 % Peak Area
- % Peak Area 25-Hydroxy Cholesterol at RRT = 3.67 (day 2, Borate 50 mM): 2.0 % Peak Area
- % Peak Area 25HC3S (day 2, Borate 50 mM): 97.8 % Peak Area
- % Peak Area Major Thermal Degradant at RRT = 2.64 (day 2, Borate 50 mM): 0.3 % Peak Area
- % Peak Area 25-Hydroxy Cholesterol at RRT = 3.67 (day 2, Phosphate 10 mM): 1.9 % Peak Area
- % Peak Area 25HC3S (day 2, Phosphate 10 mM): 97.9 % Peak Area
- % Peak Area Major Thermal Degradant at RRT = 2.64 (day 2, Phosphate 10 mM): 0.3 % Peak Area
- % Peak Area 25-Hydroxy Cholesterol at RRT = 3.67 (day 2, Phosphate 20 mM): 1.9 % Peak Area
- % Peak Area 25HC3S (day 2, Phosphate 20 mM): 98.0 % Peak Area
- % Peak Area Major Thermal Degradant at RRT = 2.64 (day 2, Phosphate 20 mM): 0.2 % Peak Area
- % Peak Area 25-Hydroxy Cholesterol at RRT = 3.67 (day 2, Phosphate 50 mM): 2.0 % Peak Area
- % Peak Area 25HC3S (day 2, Phosphate 50 mM): 97.8 % Peak Area
- % Peak Area Major Thermal Degradant at RRT = 2.64 (day 2, Phosphate 50 mM): 0.3 % Peak Area
- % Peak Area 25-Hydroxy Cholesterol at RRT = 3.67 (day 2, Phosphate 100 mM): 2.0 % Peak Area
- % Peak Area 25HC3S (day 2, Phosphate 100 mM): 97.8 % Peak Area
- % Peak Area Major Thermal Degradant at RRT = 2.64 (day 2, Phosphate 100 mM): 0.3 % Peak Area
- % Peak Area 25-Hydroxy Cholesterol at RRT = 3.67 (day 3, Borate 10 mM): 2.8 % Peak Area
- % Peak Area 25HC3S (day 3, Borate 10 mM): 97.0 % Peak Area
- % Peak Area Major Thermal Degradant at RRT = 2.64 (day 3, Borate 10 mM): 0.3 % Peak Area
- % Peak Area 25-Hydroxy Cholesterol at RRT = 3.67 (day 3, Borate 50 mM): 3.0 % Peak Area
- % Peak Area 25HC3S (day 3, Borate 50 mM): 96.9 % Peak Area
- % Peak Area Major Thermal Degradant at RRT = 2.64 (day 3, Borate 50 mM): 0.2 % Peak Area
- % Peak Area 25-Hydroxy Cholesterol at RRT = 3.67 (day 3, Phosphate 10 mM): 4.3 % Peak Area
- % Peak Area 25HC3S (day 3, Phosphate 10 mM): 95.6 % Peak Area
- % Peak Area Major Thermal Degradant at RRT = 2.64 (day 3, Phosphate 10 mM): 0.2 % Peak Area
- % Peak Area 25-Hydroxy Cholesterol at RRT = 3.67 (day 3, Phosphate 20 mM): 3.5 % Peak Area
- % Peak Area 25HC3S (day 3, Phosphate 20 mM): 96.4 % Peak Area
- % Peak Area Major Thermal Degradant at RRT = 2.64 (day 3, Phosphate 20 mM): 0.2 % Peak Area
- % Peak Area 25-Hydroxy Cholesterol at RRT = 3.67 (day 3, Phosphate 50 mM): 3.3 % Peak Area
- % Peak Area 25HC3S (day 3, Phosphate 50 mM): 96.5 % Peak Area
- % Peak Area Major Thermal Degradant at RRT = 2.64 (day 3, Phosphate 50 mM): 0.3 % Peak Area
- % Peak Area 25-Hydroxy Cholesterol at RRT = 3.67 (day 3, Phosphate 100 mM): 3.2 % Peak Area
- % Peak Area 25HC3S (day 3, Phosphate 100 mM): 96.6 % Peak Area
- % Peak Area Major Thermal Degradant at RRT = 2.64 (day 3, Phosphate 100 mM): 0.3 % Peak Area
- % Peak Area 25-Hydroxy Cholesterol at RRT = 3.67 (day 7, Borate 10 mM): 7.3 % Peak Area
- % Peak Area 25HC3S (day 7, Borate 10 mM): 92.5 % Peak Area
- % Peak Area Major Thermal Degradant at RRT = 2.64 (day 7, Borate 10 mM): 0.2 % Peak Area
- % Peak Area 25-Hydroxy Cholesterol at RRT = 3.67 (day 7, Borate 50 mM): 6.2 % Peak Area
- % Peak Area 25HC3S (day 7, Borate 50 mM): 93.6 % Peak Area
- % Peak Area Major Thermal Degradant at RRT = 2.64 (day 7, Borate 50 mM): 0.3 % Peak Area
- % Peak Area 25-Hydroxy Cholesterol at RRT = 3.67 (day 7, Phosphate 10 mM): 27.1 % Peak Area
- % Peak Area 25HC3S (day 7, Phosphate 10 mM): 72.3 % Peak Area
- % Peak Area Major Thermal Degradant at RRT = 2.64 (day 7, Phosphate 10 mM): 0.7 % Peak Area
- % Peak Area 25-Hydroxy Cholesterol at RRT = 3.67 (day 7, Phosphate 20 mM): 19.8 % Peak Area
- % Peak Area 25HC3S (day 7, Phosphate 20 mM): 79.9 % Peak Area
- % Peak Area Major Thermal Degradant at RRT = 2.64 (day 7, Phosphate 20 mM): 0.2 % Peak Area
- % Peak Area 25-Hydroxy Cholesterol at RRT = 3.67 (day 7, Phosphate 50 mM): 11.6 % Peak Area
- % Peak Area 25HC3S (day 7, Phosphate 50 mM): 88.2 % Peak Area
- % Peak Area Major Thermal Degradant at RRT = 2.64 (day 7, Phosphate 50 mM): 0.2 % Peak Area
- % Peak Area 25-Hydroxy Cholesterol at RRT = 3.67 (day 7, Phosphate 100 mM): 9.8 % Peak Area
- % Peak Area 25HC3S (day 7, Phosphate 100 mM): 90.0 % Peak Area
- % Peak Area Major Thermal Degradant at RRT = 2.64 (day 7, Phosphate 100 mM): 0.2 % Peak Area
